Tests used:
[1] = Clearance in human liver microsomes at 1 umol/L after 20 mins by HPLC analysis in presence of NADPH; type: ADME, Microsome; settings: read-out: CLH
[2] = Clearance in rat liver microsomes at 1 umol/L after 20 mins by HPLC analysis in presence of NADPH; type: ADME, Microsome; settings: read-out: CLH
[3] = target: T1, Peroxisome proliferator-activated receptor gamma (Homo sapiens, UniProt P37231); assay: Transactivation of human PPARgamma1 expressed in CHO-K1 cells co-expressing RXRalpha and PPRE after 1 day by luciferase reporter gene assay; type: cell-based
T1 sequence (P37231 whole entry): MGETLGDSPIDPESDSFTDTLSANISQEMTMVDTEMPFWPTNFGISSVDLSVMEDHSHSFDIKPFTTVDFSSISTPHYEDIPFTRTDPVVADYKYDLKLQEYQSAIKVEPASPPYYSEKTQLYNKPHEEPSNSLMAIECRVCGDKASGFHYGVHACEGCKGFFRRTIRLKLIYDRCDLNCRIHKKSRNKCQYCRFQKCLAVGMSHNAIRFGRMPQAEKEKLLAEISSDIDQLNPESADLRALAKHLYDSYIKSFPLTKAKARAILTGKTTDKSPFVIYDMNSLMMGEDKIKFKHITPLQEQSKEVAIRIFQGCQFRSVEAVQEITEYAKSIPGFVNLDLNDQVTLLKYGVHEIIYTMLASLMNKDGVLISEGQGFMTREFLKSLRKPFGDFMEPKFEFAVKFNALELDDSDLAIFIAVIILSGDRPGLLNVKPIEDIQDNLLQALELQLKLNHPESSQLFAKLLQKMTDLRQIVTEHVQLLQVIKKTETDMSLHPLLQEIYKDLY

[4] = Dissociation constant, pKa of the compound; type: physicochemical
[5] = Clearance in human liver microsomes at 1 umol/L after 2 hrs by HPLC analysis in absence of NADPH; type: ADME, Microsome; settings: read-out: CLH
[6] = Clearance in rat liver microsomes at 1 umol/L after 2 hrs by HPLC analysis in absence of NADPH; type: ADME, Microsome; settings: read-out: CLH
[7] = target: T2, Peroxisome proliferator-activated receptor alpha (Homo sapiens, UniProt Q07869); assay: Transactivation of human PPARalpha expressed in african green monkey COS1 cells after 1 day by luciferase reporter gene assay; type: cell-based, COS-1
T2 sequence (Q07869 whole entry): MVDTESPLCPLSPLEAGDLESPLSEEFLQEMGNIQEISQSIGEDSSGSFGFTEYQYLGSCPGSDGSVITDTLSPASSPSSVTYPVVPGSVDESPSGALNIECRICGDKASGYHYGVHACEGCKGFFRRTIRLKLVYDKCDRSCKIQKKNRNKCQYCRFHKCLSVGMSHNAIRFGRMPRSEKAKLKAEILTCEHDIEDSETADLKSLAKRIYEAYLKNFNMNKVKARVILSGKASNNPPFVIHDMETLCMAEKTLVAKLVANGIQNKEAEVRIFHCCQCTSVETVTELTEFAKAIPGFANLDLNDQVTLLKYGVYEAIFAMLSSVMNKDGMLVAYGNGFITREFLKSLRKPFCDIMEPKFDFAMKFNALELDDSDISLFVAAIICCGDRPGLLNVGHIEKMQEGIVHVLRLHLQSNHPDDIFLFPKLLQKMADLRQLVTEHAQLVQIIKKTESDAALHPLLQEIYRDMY

[8] = target: T3, Peroxisome proliferator-activated receptor delta (Homo sapiens, UniProt Q03181); assay: Transactivation of human PPARdelta expressed in african green monkey COS1 cells after 1 day by luciferase reporter gene assay; type: cell-based, COS-1
T3 sequence (Q03181 whole entry): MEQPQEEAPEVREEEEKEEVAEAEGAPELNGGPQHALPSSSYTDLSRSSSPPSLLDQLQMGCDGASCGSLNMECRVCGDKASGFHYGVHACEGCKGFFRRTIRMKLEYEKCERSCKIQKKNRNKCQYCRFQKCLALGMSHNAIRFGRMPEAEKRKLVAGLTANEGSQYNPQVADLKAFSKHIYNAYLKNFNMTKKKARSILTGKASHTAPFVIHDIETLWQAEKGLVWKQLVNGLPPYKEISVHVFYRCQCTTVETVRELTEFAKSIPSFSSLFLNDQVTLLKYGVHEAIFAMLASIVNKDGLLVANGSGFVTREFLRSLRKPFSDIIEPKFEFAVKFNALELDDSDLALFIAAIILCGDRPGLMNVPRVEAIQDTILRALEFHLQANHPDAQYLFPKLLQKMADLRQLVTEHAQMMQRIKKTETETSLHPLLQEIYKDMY

[9] = target: T1, Peroxisome proliferator-activated receptor gamma; assay: Displacement of [3H]-AD-5061 from human GST-tagged PPARgamma
Rattus norvegicus [10] = assay: Antidiabetic activity in po dosed Wistar fatty rat type 2 diabetes model assessed as reduction on plasma glucose level administered once daily for 7 days measured by autoanalyzer relative to control; type: functional; settings: 168 h
Rattus norvegicus [11] = assay: Antidiabetic activity in po dosed Wistar fatty rat type 2 diabetes model assessed as reduction on plasma triglyceride level administered once daily for 7 days measured by autoanalyzer relative to control; type: functional; settings: 168 h
[12] = Cmax in Wistar fatty rat at 0.18 mg/kg, po; type: ADME, organism-based; set-up: dose 0.18 mg/kg, route oral; settings: in vivo
[13] = AUC (0 to 24 hrs) in Wistar fatty rat at 0.18 mg/kg, po; type: ADME, organism-based; set-up: time < 24 hr, dose 0.18 mg/kg, route oral; settings: plasma

| microsomal CLint at 1 µM [1] [µL/min/mg] | microsomal CLint at 1 µM [2] [µL/min/mg] | EC50 [3] [µM] | Structure (SMILES) | also measured |
| --- | --- | --- | --- | --- |
| 20 | 20 |  | CCCCCS(=O)(=O)NC(=O)/C(C)=C/c1ccc(OCCOC)cc1Oc1ncc(C(F)(F)F)cc1Cl |  |
| 70 | 111 |  | CCCCCNS(=O)(=O)NC(=O)CCc1ccc(OCCOC)cc1Oc1ncc(C(F)(F)F)cc1Cl |  |
| 16 | 15 |  | CCCCCS(=O)(=O)NC(=O)/C=C/c1ccc(OCCCOC)cc1Oc1ncc(C(F)(F)F)cc1Cl |  |
| < 1 | < 1 |  | CCCCCS(=O)(=O)NC(=O)/C=C/c1ccc(OCCO)cc1Oc1ncc(C(F)(F)F)cc1Cl |  |
| 30 | 19 | 0.059 | CCCCCS(=O)(=O)NC(=O)/C=C/c1ccc(OCCC(C)=O)cc1Oc1ncc(C(F)(F)F)cc1Cl |  |
| 6 | < 1 | 0.32 | CCCCCS(=O)(=O)NC(=O)/C=C/c1ccc(OCCCS(C)(=O)=O)cc1Oc1ncc(C(F)(F)F)cc1Cl |  |
| 23 | 19 |  | CCCCCS(=O)(=O)NC(=O)/C=C/c1ccc(OCCCC#N)cc1Oc1ncc(C(F)(F)F)cc1Cl |  |
|  |  | 0.29 | CCCCCNC(=O)CCc1ccc(OC(C)C)cc1Oc1ncc(C(F)(F)F)cc1Cl |  |
| 210 | 204 | 0.032 | CCCCCS(=O)(=O)NCCCc1ccc(OCCOC)cc1Oc1ncc(C(F)(F)F)cc1Cl |  |
|  |  | 0.038 | CCCCOC(=O)NCCCc1ccc(OCCOC)cc1Oc1ncc(C(F)(F)F)cc1Cl |  |
|  |  | 0.048 | CCCCNC(=O)OCCCc1ccc(OCCOC)cc1Oc1ncc(C(F)(F)F)cc1Cl |  |
| 90 | 35 |  | CCCCCS(=O)(=O)NC(=O)OCCCc1ccc(OCCOC)cc1Oc1ncc(C(F)(F)F)cc1Cl | pKa [4]: 4.6 |
| 78 | 120 | 0.061 | CCCCCS(=O)(=O)NC(=O)CCc1ccccc1Oc1ncc(C(F)(F)F)cc1Cl |  |
| 57 | 94 |  | CCCCCS(=O)(=O)NC(=O)CCc1ccc(OC(C)C)cc1Oc1ncc(C(F)(F)F)cc1Cl |  |
| 77 | 62 |  | CCCCCS(=O)(=O)NC(=O)CCc1ccc(OCCOC)cc1Oc1ncc(C(F)(F)F)cc1Cl | metabolised at 2 h, 1 µM [5]: 50.1%; metabolised at 2 h, 1 µM [6]: 13.6%; pKa [4]: 4.6 |
| 95 | 92 |  | CCCCCS(=O)(=O)NC(=O)CCc1ccc(OCC(=O)N(CC)CC)cc1Oc1ncc(C(F)(F)F)cc1Cl |  |
| 78 | 104 |  | CCCCCS(=O)(=O)NC(=O)CCc1ccc(OCCN2CCCC2=O)cc1Oc1ncc(C(F)(F)F)cc1Cl |  |

| microsomal CLint at 1 µM [1] [µL/min/mg] | microsomal CLint at 1 µM [2] [µL/min/mg] | EC50 [3] [µM] | Structure (SMILES) | also measured |
| --- | --- | --- | --- | --- |
| 7 | 11 | 0.011 | COCCCS(=O)(=O)NC(=O)CCc1ccc(OCCOC)cc1Oc1ncc(C(F)(F)F)cc1Cl |  |
|  |  | 0.032 | COCCOc1ccc(CCC(=O)NS(=O)(=O)c2ccccc2)c(Oc2ncc(C(F)(F)F)cc2Cl)c1 |  |
| 67 | 71 | 0.0086 | COCCOc1ccc(CCC(=O)NS(=O)(=O)c2ccc(Cl)cc2)c(Oc2ncc(C(F)(F)F)cc2Cl)c1 |  |
| 9 | 6 |  | CCCCCS(=O)(=O)NC(=O)/C=C/c1ccc(OCCOC)cc1Oc1ncc(C(F)(F)F)cc1Cl | EC50 [7]: > 10 µM; EC50 [8]: > 10 µM; metabolised at 2 h, 1 µM [5]: 94.8%; metabolised at 2 h, 1 µM [6]: 87.3%; IC50 [9]: 0.33 µM; ED25 (Rattus norvegicus [10]): 0.17 mg/kg; ED25 (Rattus norvegicus [11]): 0.2 mg/kg; Cmax [12]: 946 ng/mL; AUC(0-t) at 24 h [13]: 15300 ng·h/mL |
| 128 | 189 |  | CCCCCS(=O)(=O)NC(=O)C(C)Cc1ccc(OCCOC)cc1Oc1ncc(C(F)(F)F)cc1Cl (stereo not drawn) |  |
| 113 | 78 |  | CCCCCS(=O)(=O)NC(=O)C(C)(C)Cc1ccc(OCCOC)cc1Oc1ncc(C(F)(F)F)cc1Cl |  |
| 40 |  | 0.0055 | CCCCCS(=O)(=O)NC(=O)C1CC1c1ccc(OCCOC)cc1Oc1ncc(C(F)(F)F)cc1Cl (stereo not drawn) | hepatic extraction ratio at 20 min, 1 µM [2]: 0.26; metabolised at 2 h, 1 µM [5]: 73.8%; metabolised at 2 h, 1 µM [6]: 81.7% |
| 72 | 15 |  | CCCCCS(=O)(=O)NC(=O)C(Cc1ccc(OCCOC)cc1Oc1ncc(C(F)(F)F)cc1Cl)OC (stereo not drawn) |  |
| 23 | 31 |  | CCCCCS(=O)(=O)NC(=O)OCc1ccc(OCCOC)cc1Oc1ncc(C(F)(F)F)cc1Cl |  |
| 14 | 10 | 0.094 | CCCCCS(=O)(=O)NC(=O)/C=C/c1ccc(OCCOC)cc1Oc1ccc(C(F)(F)F)cc1Cl |  |
| < 1 | < 1 | > 10 | CCCCCS(=O)(=O)NC(=O)/C=C/c1ccc(OCCOC)cc1Oc1ccc(C(F)(F)F)cn1 |  |
| 18 | 15 | > 10 | CCCCCS(=O)(=O)NC(=O)/C=C/c1ccc(OCCOC)cc1Oc1ncccc1Cl |  |
| 9 | 9 | 0.19 | CCCCCS(=O)(=O)NC(=O)/C=C/c1ccc(OCCOC)cc1Oc1ncc(Cl)cc1Cl |  |
|  |  | > 10 | CCCCCS(=O)(=O)NC(=O)/C=C/c1ccc(OCCOC)cc1Oc1ncc(NC(C)=O)cc1C |  |
| 19 | 19 |  | CCCCCS(=O)(=O)NC(=O)/C=C/c1ccc(OC(C)C)cc1Oc1ncc(C(F)(F)F)cc1Cl |  |
| 25 | 17 |  | CCCCCS(=O)(=O)NC(=O)/C=C/c1ccc(OCCOC2CC2)cc1Oc1ncc(C(F)(F)F)cc1Cl |  |
|  |  | > 10 | CCCCCS(=O)(=O)NC(=O)/C=C/c1ccc(OCCOC)cc1Oc1ncc(N)cc1C |  |

From ChEMBL document CHEMBL2021860, “Structure-activity relationships and key structural feature of pyridyloxybenzene-acylsulfonamides as new, potent, and selective peroxisome proliferator-activated receptor (PPAR) γ Agonists” (Bioorg Med Chem, 2012)
